{"source": "ChEMBL document CHEMBL4823315", "about": "(Bioorg Med Chem Lett, 2021)", "key": {"[1]": {"target": "Cytochrome P450 2C19 (Homo sapiens, UniProt P33261)", "sequence (P33261 whole entry)": "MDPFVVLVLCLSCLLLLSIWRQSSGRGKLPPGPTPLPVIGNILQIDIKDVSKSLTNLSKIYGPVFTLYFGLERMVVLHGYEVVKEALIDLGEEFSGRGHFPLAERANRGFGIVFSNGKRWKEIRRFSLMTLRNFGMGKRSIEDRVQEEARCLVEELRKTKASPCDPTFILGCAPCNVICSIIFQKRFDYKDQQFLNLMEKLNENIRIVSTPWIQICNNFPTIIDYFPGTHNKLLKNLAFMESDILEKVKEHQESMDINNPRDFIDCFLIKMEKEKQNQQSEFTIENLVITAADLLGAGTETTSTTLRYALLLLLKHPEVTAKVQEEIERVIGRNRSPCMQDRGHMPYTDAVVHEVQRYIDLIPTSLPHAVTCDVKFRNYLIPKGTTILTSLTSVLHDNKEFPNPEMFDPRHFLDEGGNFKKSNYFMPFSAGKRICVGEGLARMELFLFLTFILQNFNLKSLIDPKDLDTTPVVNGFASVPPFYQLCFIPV", "assay": "Inhibition of CYP2C19 (unknown origin)", "format": "ADME"}, "[2]": {"assay": "Cmax in CD-1 mouse at 5 mg/kg, iv", "format": "ADME, organism-based", "design": "route intravenous, dose 5 mg/kg", "conditions": "in vivo"}, "[3]": {"assay": "Cmax in Sprague-Dawley rat at 5 mg/kg, po", "format": "ADME, organism-based", "design": "route oral, dose 5 mg/kg", "conditions": "in vivo"}, "[4]": {"tested_on": "MDA-MB-436", "assay": "Antitumor activity against human MDA-MB-436 cells xenografted in mouse assessed as tumor growth inhibition at 25 mg/kg, po qd and measured for 28 days", "format": "functional", "conditions": "MDA-MB-436, po, 672 h, time 28 day, read-out: TGI"}, "[5]": {"assay": "Intrinsic clearance in human liver microsomes", "format": "ADME, Microsome", "conditions": "read-out: CLH"}, "[6]": {"assay": "Half life in Beagle dog at 0.5 mg/kg, po or 0.2 mg/kg, iv", "format": "ADME, organism-based, Canis lupus familiaris", "conditions": "in vivo"}, "[7]": {"assay": "Cmax in Beagle dog at 0.5 mg/kg, po", "format": "ADME, organism-based, Canis lupus familiaris", "design": "route oral, dose 0.5 mg/kg", "conditions": "in vivo"}, "[8]": {"assay": "Clearance in Sprague-Dawley rat at 5 mg/kg, po or 5 mg/kg, iv", "format": "ADME, organism-based", "conditions": "in vivo"}, "[9]": {"assay": "Protein binding in human plasma assessed as unbound fraction", "format": "ADME, cell-free"}, "[10]": {"target": "T1, Cytochrome P450 2B6 (Homo sapiens, UniProt P20813)", "T1 sequence (P20813 whole entry)": "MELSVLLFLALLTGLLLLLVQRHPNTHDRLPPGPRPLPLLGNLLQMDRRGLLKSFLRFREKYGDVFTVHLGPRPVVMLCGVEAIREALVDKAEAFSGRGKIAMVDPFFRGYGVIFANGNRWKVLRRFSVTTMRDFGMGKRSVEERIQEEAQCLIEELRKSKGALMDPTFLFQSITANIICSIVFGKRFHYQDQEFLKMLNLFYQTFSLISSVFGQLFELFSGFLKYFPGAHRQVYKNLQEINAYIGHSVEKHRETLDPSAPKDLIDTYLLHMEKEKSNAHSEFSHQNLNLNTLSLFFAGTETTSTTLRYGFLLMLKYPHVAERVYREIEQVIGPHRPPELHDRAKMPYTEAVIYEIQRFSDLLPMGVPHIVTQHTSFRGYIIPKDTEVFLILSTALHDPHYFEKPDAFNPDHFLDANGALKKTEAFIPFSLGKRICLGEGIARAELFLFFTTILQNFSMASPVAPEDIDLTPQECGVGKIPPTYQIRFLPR", "assay": "Inhibition of CYP2B6 (unknown origin)", "format": "ADME"}, "[11]": {"assay": "In vivo Inhibition of Akt/p70S6K in mouse xenografted with human MDA-MB-436 cells assessed as reduction in S6 phosphorylation in tumor at 200 mg/kg, po measured after 24 hrs", "format": "functional", "conditions": "MDA-MB-436, po"}, "[12]": {"assay": "Intrinsic clearance in mouse liver microsomes", "format": "ADME, Microsome", "conditions": "read-out: CLH"}, "[13]": {"assay": "Efflux ratio of apparent permeability in human Caco-2 cells", "format": "ADME, cell-based"}}}
{"smiles": "NC(=O)c1c(N)ncnc1N1CCC(c2nc(-c3ccc(F)c(C(F)(F)F)c3)cn2CCN2CCC2)CC1", "values": [{"measurement": "IC50", "setting": "[1]", "value": "> 20", "unit": "µM"}, {"measurement": "Cmax", "setting": "[2]", "value": 163, "unit": "ng/mL"}, {"measurement": "Cmax", "setting": "[3]", "value": 13, "unit": "ng/mL"}, {"measurement": "inhibition in vivo at 25 mg/kg", "setting": "[4]", "value": 81, "unit": "%"}, {"measurement": "microsomal CLint", "setting": "[5]", "value": 46, "unit": "µL/min/mg"}, {"measurement": "half-life", "setting": "[6]", "value": 1140, "unit": "min"}, {"measurement": "Cmax", "setting": "[7]", "value": 67.8, "unit": "ng/mL"}, {"measurement": "clearance", "setting": "[8]", "value": 312, "unit": "mL/min/kg"}, {"measurement": "fraction unbound", "setting": "[9]", "value": 0.21}, {"measurement": "IC50", "setting": "[10]", "value": "> 20", "unit": "µM"}, {"measurement": "inhibition in vivo at 200 mg/kg", "setting": "[11]", "value": 92, "unit": "%"}, {"measurement": "microsomal CLint", "setting": "[12]", "value": 11, "unit": "µL/min/mg"}, {"measurement": "efflux ratio", "setting": "[13]", "value": 7.9}]}
